Susceptibility of isolates data for 8 compounds are collected here from patent US11781191B2, “Compositions and method for detecting Mycobacterium riyadhense” (King Abdullah University of Science and Technology, priority 2019, dated 2023).

The assay has as its system M. riyadhense isolates. In words: antimicrobial susceptibility testing of clinical isolates. It is filed as cell-based, Mycobacterium riyadhense. The following applies: eight clinical M. riyadhense isolates; share of isolates susceptible.

`CC[C@H]1OC(=O)[C@H](C)[C@@H](O[C@H]2C[C@@](C)(OC)[C@@H](O)[C@H](C)O2)[C@H](C)[C@@H](O[C@@H]2O[C@H](C)C[C@H](N(C)C)[C@H]2O)[C@](C)(OC)C[C@@H](C)C(=O)[C@H](C)[C@@H](O)[C@]1(C)O` [clarithromycin] had a susceptibility of isolates of 100%. `CO[C@H]1/C=C/O[C@@]2(C)Oc3c(C)c(O)c4c(c3C2=O)C2=NC3(CCN(CC(C)C)CC3)NC2=C(NC(=O)/C(C)=C\C=C\[C@H](C)[C@H](O)[C@@H](C)[C@@H](O)[C@@H](C)[C@H](OC(C)=O)[C@@H]1C)C4=O` [rifabutin] showed a susceptibility of isolates of 100%.

trimethoprim-sulfamethoxazole returned a susceptibility of isolates of 100%. The result for `COc1c(N2C[C@@H]3CCCN[C@@H]3C2)c(F)cc2c(=O)c(C(=O)O)cn(C3CC3)c12` [moxifloxacin] reads 100%. The result for `NCC[C@H](O)C(=O)N[C@@H]1C[C@H](N)[C@@H](O[C@H]2O[C@H](CN)[C@@H](O)[C@H](O)[C@H]2O)[C@H](O)[C@H]1O[C@H]1O[C@H](CO)[C@@H](O)[C@H](N)[C@H]1O` [amikacin] reads 100%; that for `CC(=O)NC[C@H]1CN(c2ccc(N3CCOCC3)c(F)c2)C(=O)O1` [linezolid], 100%; that for `CC[C@@H](CO)NCCN[C@@H](CC)CO` [ethambutol], 100%. `CO[C@H]1/C=C/O[C@@]2(C)Oc3c(C)c(O)c4c(O)c(c(/C=N/N5CCN(C)CC5)c(O)c4c3C2=O)NC(=O)/C(C)=C\C=C\[C@H](C)[C@H](O)[C@@H](C)[C@@H](O)[C@@H](C)[C@H](OC(C)=O)[C@@H]1C` [rifampin] returned a susceptibility of isolates of 100%.
